Experimental findings from ChEMBL document CHEMBL1125278, “Novel cerebroprotective agents with central nervous system stimulating activity. 2. Synthesis and pharmacology of the 1-(acylamino)-7-hydroxyindan derivatives” (1991) are described below.

Structures are written as SMILES.

Common to all, as to type: functional
Assay [1] concerns Mus musculus. The assay is described as follows: Time of recovery of righting reflux (RRT) in seconds was measured after iv administration of 0.625 mg/kg in mice for the promotional effect on recovery from coma.
Assay [2] concerns Mus musculus. Briefly: Time of recovery of righting reflux (RRT) in seconds was measured after iv administration of 1.25 mg/kg in mice for the promotional effect on recovery from coma.
Assay [3] has as its system Mus musculus. Briefly: Time of recovery of righting reflux (RRT) in seconds was measured after iv administration of 2.5 mg/kg in mice for the promotional effect on recovery from coma.
Assay [4] deals with Mus musculus. The assay is described as follows: Antihypoxic effect by the ratio of survival time (SVT) of test mice to that of control group at a dose of 0.3 mg/kg administered intraperitoneally. The note with it: route intraperitoneal.
Assay [5] relates to Mus musculus. The assay is described as follows: Antihypoxic effect by the ratio of survival time (SVT) of test mice to that of control group at a dose of 1 mg/kg administered intraperitoneally. The following applies: route intraperitoneal.
The subject of assay [6] is Mus musculus. The assay is described as follows: Antihypoxic effect tested by the ratio of survival time (SVT) of test mice to that of control group, dosed intraperitoneally at 30 mg/kg. The following applies: route intraperitoneal.
In assay [7] the test system is Mus musculus. The assay is described as follows: Antihypoxic effect by the ratio of survival time (SVT) of test mice to that of control group at a dose of 3 mg/kg administered intraperitoneally. The following applies: route intraperitoneal.
Assay [8] deals with Mus musculus. Briefly: Time of recovery of spontaneous movement (SMT) in seconds was measured after iv administration of 0.625 mg/kg in mice for the promotional effect on recovery from coma.
Assay [9] relates to Mus musculus. The assay is described as follows: Time of recovery of spontaneous movement (SMT) in seconds was measured after iv administration of 1.25 mg/kg in mice for the promotional effect on recovery from coma.
In assay [10] the test system is Mus musculus. Briefly: Time of recovery of spontaneous movement (SMT) in seconds was measured after iv administration of 2.5 mg/kg in mice for the promotional effect on recovery from coma.
For assay [11], the system named is Mus musculus. Briefly: Compound was tested for the anesthetic effect and the sleeping time (ST) was recorded at a dose of 0.3 mg/kg administered intraperitoneally. The following applies: route intraperitoneal.
Assay [12] relates to Mus musculus. The assay is described as follows: Compound was tested for the anesthetic effect and the sleeping time (ST) was recorded at a dose of 1 mg/kg administered intraperitoneally. The following applies: route intraperitoneal.
Assay [13] deals with Mus musculus. The assay is described as follows: Compound was tested for the anesthetic effect and the sleeping time (ST) was recorded at a dose of 3 mg/kg administered intraperitoneally. The following applies: route intraperitoneal.

`NC(=O)[C@@H]1CCCN1C(=O)[C@H](Cc1c[nH]cn1)NC(=O)[C@@H]1CCC(=O)N1` [PROTIRELIN]: the RRT is on record as 100.1 s in [1], 34.1 s in assay [2] and 40.8 s in assay [3]. Also, the SVT in assay [4] is reported as 83.8%; in assay [5], 47.1%; in assay [6] it was 43.4%; in assay [7], 43.4%. Further, the SMT in assay [8] is 118.2 s; in assay [9], 48.2 s; in assay [10] it was 40.9 s. Besides, the ST in assay [11] worked out at 83.1 s; in assay [12], 70.7 s; in assay [13], 73.2 s.
